Reference: paper PMC11292009, “Mapping protein binding sites by photoreactive fragment pharmacophores” (Communications Chemistry, 2024)
Where “and” joins values, the source holds several entries; their conditions need not be identical. Equal entries are not always repeated.

Assays:
[1] = target: T1, STAT5B NTD (Homo sapiens, UniProt P51692); experiment: Microscale thermophoresis (MST), without irradiation; type: binding; conditions: for ΔFnorm: Fnorm - Unbound value; for ΔFnorm / Fnorm: Php065 concentration [log; for Fnorm: MST raw data
T1 construct: His-SUMO (N, cleaved yes); made in house; host or cells: E. coli BL21 RILP
T1 sequence (P51692 1-123): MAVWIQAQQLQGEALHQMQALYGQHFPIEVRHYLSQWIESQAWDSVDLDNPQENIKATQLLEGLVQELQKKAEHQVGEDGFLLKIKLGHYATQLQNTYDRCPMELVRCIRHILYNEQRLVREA
Protocol: For the microscale thermophoresis (MST) studies, we prepared 16 two-fold serial dilutions of compounds starting from 500 μM. Titration series were prepared that contained 10 μL of compounds’ solutions of varying concentrations and 10 μL RED-NHS 2nd Generation labeled STAT5B NTD with a concentration of 168 nM for compound PhP097, and a concentration of 84 nM for compound PhP065. Final buffer composition included 1X PBS containing 0.5% DMSO. All measurements were taken in Premium Coated Capillaries on a Monolith NT.115 instrument (NanoTemper Technologies, Munich, Germany) using 80% infrared laser power for compound PhP097, 60% infrared laser power for compound PhP065, and an LED excitation source with λ = 650 nm at a temperature of 25 °C. Results were expressed as the mean of two separate experiments, with three technical replicates each. GraphPad Prism 9.5.1 software was used to fit the data and to determine the KD values.

[2] = test system: MV4-11 cells; experiment: CellTiter-Blue cell viability assay, MV4-11; type: cell-based; conditions: Homo sapiens, MV4-11, 72 h
Protocol: MV4-11 and MOLM-13 cell lines were purchased from DSMZ (Braunschweig, Germany), and grown at 37 °C and 5% CO2 in RPMI 1640 medium (Gibco^TM, Thermo Fisher Scientific). Media were supplemented with 10% fetal calf serum (FCS), 10 U/mL penicillin, 10 µg/mL streptomycin and 2 mM L-glutamine (all Gibco^TM, Thermo Fisher Scientific).
To determine the IC50 of the selected compounds on the cell lines, CellTiter-Blue® cell viability assay (Promega) was performed. For this, cells were seeded in 96-well flat bottom plates at a cell density of 10,000 cells/well. Cells were treated in triplicates with the compound of interest at various concentrations or with 10 μM Bortezomib (S1013; Selleck Chemicals, Houston, TX, USA) as a positive control. Cell viability of treated cell lines was measured using CellTiter-Blue® after 72 h incubation. Plates were measured using a GloMax® plate reader (Promega) and IC50 values were determined by non-linear regression using the GraphPad Prism 9.1.1 (GraphPad Software, Inc.) and the data are reported as mean values ± SEM.

[3] = test system: SW1990 cells; experiment: MTT cell viability assay, SW1990; type: cell-based, human; conditions: for cell viability: replicates, in % (unit assumed)
From the text: (§1) Pancreatic cancer cell lines PANC-1 (cat. no. CRL-1469), SW1990 (cat. no. CRL-2172) were obtained from ATCC (American Type Culture Collection). Genetically modified isogeneic colon cancer cell lines SW48-PAR and SW48-G12D were obtained from Horizon Discovery Ltd. PANC-1 (human pancreatic cancer, KRas^G12D), SW1990 (human pancreatic cancer, KRas^G12D), SW48-PAR (human colon cancer; parental cell line KRas^wt), and SW48-G12D (human colon cancer; heterozygous knockin of the KRas^G12D activating mutation) cancer cell lines were cultured in Roswell Park Memorial Institute Medium (RPMI; Biosera, Nuaille, France), supplemented with 10% heat-inactivated Fetal Bovine Serum (FBS; Biosera), and with 1% Penicillin/Streptomycin (Biosera). Cells were cultured in sterile T75 flasks with ventilation cap (Sarstedt, Nümbrecht, Germany) at 37 °C in a humidified atmosphere with 5% CO2 in ESCO CelCulture Incubator (ESCO, Friedberg, Germany). Manipulations with the cells were performed in biosafety cabinet (laminar) ESCO Sentinel Gold class II model AC2-4E8 (ESCO).
(§2) After standard harvesting of the cells by trypsin-EDTA (Biosera), 7 × 10^3 cells per well depending on the cell line, were seeded in serum-containing growth medium to 96-well plates and incubated. After 24 h, cells were treated with various concentrations of fragments (32 nM–100 μM), dissolved in serum-containing medium, and incubated under standard conditions. Control wells were treated with medium. Final concentration of serum was 2.5%, final concentration of DMSO was 0.2%. Treatment was for 72 h continuously.
(§3) Afterwards, MTT assay was performed in order to determine cell viability, by adding 20 μL of MTT solution (5 mg/mL in PBS) to each well and after 2 h of incubation at 37 °C, the supernatant was removed. The formazan crystals were dissolved in 100 μL of a 1:1 solution of DMSO (Sigma-Aldrich):EtOH (Molar Chemicals) and the absorbance was measured after 15 min at λ = 570 nm by using a microplate reader (BioTek 800TS, Agilent, Santa Clara, CA, USA). The IC50 values of the fragments were calculated using GraphPad Prism 6 (GraphPad Software, San Diego, CA, USA). The experiments were done in triplicate, and each experiment was repeated two times.

[4] = test system: SW48-G12D cells; experiment: MTT cell viability assay, SW48-G12D; type: cell-based, human; conditions: for cell viability: replicates, in % (unit assumed)
From the text: as §1, §2, §3

[5] = µM] -0.0102833, runs/replicates

SMILES: Cc1[nH]c2ccccc2c1SCCNC(=O)CCC1(C)N=N1 [PhP065, c1cccc(c12)c(c(C)[nH]2)SCCNC(=O)CCC3(C)N=N3]
- ΔFnorm ([1]; µM] 0.290724, runs/replicates): 0.9086 ‰ and 1.12 ‰ and 1.315 ‰ and 0.6539 ‰ and 3.352 ‰
- ΔFnorm ([1]; µM] 0.591766, runs/replicates): 1.904 ‰ and 1.964 ‰ and 2.239 ‰ and 1.873 ‰ and 1.543 ‰
- ΔFnorm ([1]; µM] 0.89279, runs/replicates): 2.551 ‰ and 2.874 ‰ and 3.878 ‰ and 2.514 ‰ and 2.452 ‰
- ΔFnorm ([1]; µM] 1.19382, runs/replicates): 2.441 ‰ and 3.584 ‰ and 3.84 ‰ and 4.085 ‰ and 3.441 ‰
- ΔFnorm ([1]; µM] 1.49485, runs/replicates): 2.771 ‰ and 2.9356 ‰ and 3.692 ‰ and 3.134 ‰ and 1.982 ‰
- ΔFnorm ([1]; µM] 1.79588, runs/replicates): 5.943 ‰ and 5.783 ‰ and 5.743 ‰ and 2.367 ‰ and 1.87 ‰
- ΔFnorm ([1]; µM] 2.09691, runs/replicates): 3.3934 ‰ and 3.578 ‰ and 3.242 ‰ and 3.625 ‰ and 1.481 ‰
- ΔFnorm [1, 5]: -0.1141 ‰ and 1.411 ‰ and 0.9224 ‰ and 2.015 ‰ and 2.612 ‰
- ΔFnorm ([1]; µM] -0.612432, runs/replicates): 0.5449 ‰ and 0.5795 ‰ and -0.1361 ‰ and -1.636 ‰ and -0.3141 ‰
- ΔFnorm ([1]; µM] -1.21467, runs/replicates): -0.5121 ‰ and -0.1857 ‰ and -0.4698 ‰ and -1.614 ‰ and -1.146 ‰
- Fnorm ([1]; µM] 0.290724, runs/replicates): 864.059 ‰ and 864.76 ‰ and 864.855 ‰ and 874.324 ‰ and 877.312 ‰
- Fnorm ([1]; µM] 0.591766, runs/replicates): 865.054 ‰ and 865.604 ‰ and 865.779 ‰ and 875.543 ‰ and 875.503 ‰
- Fnorm ([1]; µM] 0.89279, runs/replicates): 865.701 ‰ and 866.514 ‰ and 867.418 ‰ and 876.184 ‰ and 876.412 ‰
- Fnorm ([1]; µM] 1.19382, runs/replicates): 865.591 ‰ and 867.224 ‰ and 867.38 ‰ and 877.755 ‰ and 877.401 ‰
- Fnorm ([1]; µM] 1.49485, runs/replicates): 865.921 ‰ and 866.576 ‰ and 867.232 ‰ and 876.804 ‰ and 875.942 ‰
- Fnorm ([1]; µM] 1.79588, runs/replicates): 869.093 ‰ and 869.423 ‰ and 869.283 ‰ and 876.037 ‰ and 875.83 ‰
- Fnorm ([1]; µM] 2.09691, runs/replicates): 866.543 ‰ and 867.218 ‰ and 866.782 ‰ and 877.295 ‰ and 875.441 ‰
- Fnorm [1, 5]: 863.036 ‰ and 865.051 ‰ and 864.462 ‰ and 875.685 ‰ and 876.572 ‰
- Fnorm ([1]; µM] -0.612432, runs/replicates): 863.695 ‰ and 864.219 ‰ and 863.404 ‰ and 872.034 ‰ and 873.646 ‰
- Fnorm ([1]; µM] -1.21467, runs/replicates): 862.638 ‰ and 863.454 ‰ and 863.07 ‰ and 872.056 ‰ and 872.814 ‰
- Kd ([1]; MST, without irradiation, 25 °C): 2.58 µM
- IC50 [2]: 76.2 µM

SMILES: Cc1ncc(CO)c(CNC(=O)CCC2(C)N=N2)c1O [PhP072, Cc1ncc(CO)c(c1O)CNC(=O)CCC2(C)N=N2]
- IC50 ([3]; Homo sapiens, read-out: IC50, antiproliferative activity, SW1990, MTT, 72 h): 17.2 µM
- cell viability ([3]; SW1990, [PhP072] 3.2e-8 M): 101.695 and 98.3609 and 102.528 and 107.265 and 99.8137 and 96.5538
- cell viability ([3]; SW1990, [PhP072] 1.6e-7 M): 103.195 and 101.49 and 102.515 and 96.4606
- cell viability ([3]; SW1990, [PhP072] 8e-7 M): 103.528 and 101.528 and 95.5272 and 94.039 and 99.4411 and 93.387
- cell viability ([3]; SW1990, [PhP072] 4e-6 M): 101.861 and 97.8608 and 97.1941 and 99.9069 and 97.2989 and 95.6224
- cell viability ([3]; SW1990, [PhP072] 2e-5 M): 90.5265 and 81.8586 and 88.0261 and 89.1956 and 90.8722 and 79.3227
- cell viability ([3]; SW1990, [PhP072] 0.0001 M): 62.6893 and 57.5219 and 66.8565 and 62.4641 and 63.023 and 60.1356
- Antiproliferative effect ([4]; MTT, 72 h): antiproliferative activity
- cell viability ([4]; [PhP072] 3.2e-8 M): 102.762 and 97.2381 and 95.6914 and 100.978 and 97.4052 and 99.447
- cell viability ([4]; [PhP072] 1.6e-7 M): 100.994 and 98.1219 and 99.0057 and 100.978 and 99.7022 and 99.9575
- cell viability ([4]; [PhP072] 8e-7 M): 99.8895 and 99.2267 and 100.552 and 98.9365 and 101.489
- cell viability ([4]; [PhP072] 4e-6 M): 98.5638 and 96.7962 and 95.0285 and 98.9365 and 100.723 and 98.6813
- cell viability ([4]; [PhP072] 2e-5 M): 91.4933 and 92.1561 and 91.9352 and 92.8111 and 94.0872 and 91.5349
- cell viability ([4]; [PhP072] 0.0001 M): 75.1427 and 76.0265 and 77.5732 and 78.5183 and 77.2421 and 80.3049
